Structures are written as SMILES.

The values below come from patent US20180051301A1, “INDUCTION OF PACEMAKER-LIKE CELLS FROM CARDIOMYOCYTES” (WASHINGTON UNIVERSITY, priority 2015, published 2018).

Common to all, as to format: cell-based
Test [1] relates to Donor left ventricular slices. As to the kind of experiment: Optical mapping of acute drug response in donor human left ventricular slices. The following applies: donor left ventricular slices paced at 1 Hz; β-adrenergic stimulation with isoproterenol (100 nM); ±S.D.; baseline 0.67±0.03. As to the method:
After arrival, an approximately one-inch cube of left ventricular tissue or right atrial tissue was cut in cardioplegic solution. Left ventricular tissue was taken from a region close to left anterior descending artery and circumflex artery. Atrial tissue was taken from crista terminalis below sinoatrial node region. Premade 4% agarose gel cooled at 4° C. was glued on to the tissue holder of a high precision vibrating microtome (7000 smz-2, Campden Instruments Ltd. UK). The tissue block was then mounted endocardium up on the agarose. […] Slices were cut tangential to the endocardium. […]
(§1) Ventricular slices were electrophysiologically studied with optical mapping technique. […] Transmembrane potential (Vm) was measured using di4-ANEEPS and RH237 (Life Technologies). Intracellular calcium was measured using Rhod-2AM (Life Technologies). […]
Activation map was plotted via calculating activation time points at 50% of action potential upstroke amplitude. Action potential and calcium transient duration was calculated at 80% repolarization/relaxation. When slices were field-paced, conduction velocity could not be quantified via traditional longitudinal and transverse direction. During point pacing conduction velocity was calculated using a semi-automated Matlab function ORCA. Effective refractory period was measured using S1-S1 pacing protocol until 1:1 capture was lost. […]

The test system of test [2] is failing slices (left ventricular free wall of failing hearts). The test can be described thus: Optical mapping of acute drug response in failing human heart slices. The following applies: isoproterenol, baseline 0.47±0.008. On the procedure:
Adult human hearts were procured either as failing human hearts from Barnes-Jewish Hospital or donor human hearts from Mid-America transplant services. Explanted hearts were cardioplegically arrested via high potassium solution (in mmol/L: NaCl 110, CaCl2 1.2, KCl 16, MgCl2 16, NaHCO3 10) and were cooled to approximately 4° C. in the operating room following aortic cross-clamp. Failing hearts were perfused through both coronaries, while donor hearts were perfused systemically prior to removal from body. The heart was maintained at this low temperature to preserve tissue during the 15-20 minute transportation time from the operating room to the research laboratory.
as §1
Activation map was plotted via calculating activation time points at 50% of action potential upstroke amplitude. Action potential and calcium transient duration was calculated at 80% repolarization/relaxation. When slices were field-paced, conduction velocity could not be quantified via traditional longitudinal and transverse direction. During point pacing conduction velocity was calculated using a semi-automated Matlab function ORCA. […]

Test [3] concerns human ventricular slices (α1-adrenergic receptor stimulation). As to the kind of experiment: Chronic drug model: acute versus chronic phenylephrine in cultured human ventricular slices, optical mapping. The following applies: for effect on AP duration (APD): 1 Hz (60 BPM) pacing. On the procedure: Non-failing donor hearts that were rejected for transplantation were cardioplegically arrested and cooled in the operating room following the same procedure accepted for heart transplantation. Cardiac tissue that was promptly delivered to the research laboratory, where it was sliced tangential to the endocardium using a high precision (1 μm) vibrating microtome, transferred to a custom-designed incubation apparatus, and cultured at a liquid-air interface in 6-well culture plates using Transwell inserts. Slices were cultured in M-199 supplemented with 1×ITS (Insulin, Transferrin, Selenium), 10 mM 2,3-butanedione monoxime, and 2% penicillin-streptomycin in a 37° C. incubator with humidified air with 5% CO2. Culture medium was changed daily. Vital tissue slices from adult myocardium prepared in this manner have previously been cultured for up to 28 days with high cellular viability and maintenance of expression of the major ion channels and action potential characteristics.
Slices were cultured in medium 199 supplemented with 2% penicillin-streptomycin, 1×ITS (Insulin, Transferrin, Selenium) liquid media supplement, and 10 mM 2,3-butanedione monoxime. Slices were individually washed in sterile PBS solution 6 times before placing in culture. Sterile forceps were used to handle slices at all time. […]
After a 24 hour culture period, slices' electrophysiology was measured with optical mapping to examine potential functional changes occurred during culture. […]
Utilizing cultured slices and adult dosage of phenylephrine, a widely used selective α1-adrenergic receptor agonist, a model to study chronic drug effects in human cardiac slices was developed. Slice electrophysiology was first acutely measured using optical mapping after application of 3 μM phenylephrine. […]
Slices were cultured in a tissue incubator for 24 hours. Control cultured slices were measured before and after phenylephrine application similar to acute slices, slices cultured in drug media were measured separately. […] Only transverse conduction velocity could be measured accurately due to the small size of the tissue.
Activation map was plotted via calculating activation time points at 50% of action potential upstroke amplitude. Action potential and calcium transient duration was calculated at 80% repolarization/relaxation. When slices were field-paced, conduction velocity could not be quantified via traditional longitudinal and transverse direction. During point pacing conduction velocity was calculated using a semi-automated Matlab function ORCA. Effective refractory period was measured using S1-S1 pacing protocol until 1:1 capture was lost. Action potential and calcium transient were recorded at cycle lengths from 2000 ms to 200 ms.

With `CC(C)NCC(O)c1ccc(O)c(O)c1` (stereo not drawn) [isoproterenol], the “conduction velocity (CV)” value in test [1] is 0.84±0.03 m/s; in test [2], 0.54±0.006 m/s.
On to `CNC[C@H](O)c1cccc(O)c1` [phenylephrine], for which the “effect on AP restitution curve” value is “shifted the AP restitution curve upwards significantly” in test [3] (acute (15 minutes) 3 μM, at baseline as well as after one day in culture) and “shifted the AP restitution curve downwards” in test [3] (chronic (24 hours) 3 μM). Also, the “effect on AP duration (APD)” value was “APD lengthening” in test [3] (acute treatment at baseline and after one day in culture); “APD shortening” in test [3] (chronic treatment (24 hours)).
